In patent US20240051968A1, “METHODS FOR TREATING SPINOCEREBELLAR ATAXIA TYPE 3” (PTC Therapeutics, Inc., priority 2021, published 2024):

Experiments:
[1] = test system: Total ATXN3 (tATXN3) protein; assay: Endogenous Total ATXN3 (tATXN3) Protein Assay (MSD immunoassay of cell lysates); assay type: cell-based; conditions: cells incubated with compound 48 h; 7-point concentration curve; MSD detection in cell lysate
Experimental: Endogenous Total ATXN3 (tATXN3) Protein Assay
Meso Scale Discovery (MSD) 96-well or 384-well plates were coated overnight at 4° C. with Ataxin 3 mouse monoclonal antibody (Invitrogen, MA3-082) at a concentration of 0.5 μg/mL in PBS (30 μL per well). Plates were then washed three times with 300 μL wash buffer (0.05% TWEEN®-20, polyethylene glycol sorbitan monolaurate, in PBS) and blocked (Meso Scale Diagnostics, R93BA-1; 5% BSA in PBS) for 2 h at room temperature with rotational shaking and then washed three times with wash buffer.
(§1) Test compounds were serially diluted 3.16-fold in 100% DMSO to generate a 7-point concentration curve. Aliquots of 0.5 μL of diluted compounds were transferred to a 96-well flat bottom plate by a liquid handler. An aliquot of 0.5 μL DMSO was also transferred to separate wells and used as controls. Duplicate samples were set up for each compound concentration and for the DMSO control.
Cells were thawed and incubated in cell culture media (DMEM, 10% FBS, and 1% antibiotic cocktail) for 72 h. Cells were trypsinized, counted, and re-suspended to a concentration of 100,000 cells/mL in cell culture media. A 100 μL aliquot of the cell suspensions were plated at 10,000 cells per well in the compound containing 96 well microtiter plate and incubated for in a cell culture incubator (37° C., 5% CO2, 100% relative humidity). After 48 h, the medium was removed and 50-100 μL of lysis buffer (Meso Scale Diagnostics, R60TX-2) containing 1× halt protease inhibitor cocktail of (Thermo Scientific, Halt™ Protease Inhibitor Cocktail, 78430) per well was added to cells to provide a “cell lysate”. The plate was placed on a shaker at 4° C. for 30 minutes, then stored at −80° C.
Cell lysate samples (25 μL) were transferred to the antibody-coated MSD plate and incubated overnight at 4° C. After removal of the lysates, the plate was washed three times with wash buffer, and 25 μL of Ataxin 3 recombinant rabbit monoclonal antibody (Invitrogen, #702788) secondary antibody (diluted to 0.25 μg/mL in 0.05% TWEEN®-20 in blocking buffer) was added to each well and incubated with shaking for 1-2 h at room temperature. Following incubation with the secondary antibody, the wells were rinsed with wash buffer and then […] Anti Rabbit Antibody Goat SULFO-TAG Labeled (Meso Scale Diagnostics, R32AB-1) detecting antibody (diluted to 0.25 μg/mL in 0.05% TWEEN®-20 in blocking buffer) was added to each well and incubated with shaking for 1 h at room temperature. After rinsing three times with wash buffer, 150 μL of Read Buffer T with surfactant (tris-based buffer containing tripropylamine, Meso Scale Diagnostics, R92TC-1) were added to each empty well, and the plate was imaged on a SI 6000 imager (MSD) according to manufacturers' instructions provided for 96- or 384-well plates.

ATXN3 pre-mRNA = assay: RT-qPCR Assay to Quantify Exon 4 Skipping in ATXN3 pre-mRNA in Cells; assay type: cell-based; conditions: cells incubated with compound 24 h, 7-point concentration curve, GAPDH control
Experimental: as §1, with “RT-qPCR Assay to Quantify Exon 4 Skipping in ATXN3 pre-mRNA in Cells Test” for “Test”
Cells were thawed and incubated in cell culture media (DMEM, 10% FBS, and 1% antibiotic cocktail) for 72 h. Cells were trypsinized, counted, and re-suspended to a concentration of 100,000 cells/mL in cell culture media. A 100 μL aliquot of the cell suspensions were plated at 10,000 cells per well in the compound containing 96 well microtiter plate and incubated for in a cell culture incubator (37° C., 5% CO2, 100% relative humidity).
After 24 h, media was aspirated from the cells and 50 μL of the RCL2 lysis buffer (10 mM Tris-HCL pH 7.4, 150 mM NaCl, 0.33% IGEPAL® CA-630) was added to each well and incubated at room temperature for 1 min. Chilled nuclease free water (50 μL per well) was added and the plates were immediately transferred on ice. After 1 min on ice, plates were frozen at −80° C. overnight.
Preparation of RT-qPCR Reaction Mixture:
An aliquot of 2 μL/well of the cell lysates was transferred using the liquid handler to the Armadillo 384-Well PCR plate containing 8 μL/well of the RT-qPCR reaction mixture that was prepared as detailed above. The plates were then sealed with MicroAmp™ Optical Adhesive Film followed by spinning down for 1 min and placed in the CFX384 thermocycler (BioRad).
The RT-qPCR was carried out at the following temperatures for the indicated time: • Step 1: 48° C. (30 min) • Step 2: 95° C. (10 min) • Step 3: 95° C. (15 sec) • Step 4: 60° C. (1 min); then, repeated Steps 3 and 4 for a total of 40 cycles.
The percent exon 4 skipping was calculated for each dose of compound treatment using Equations 1 and 2.
Data were fit to a dose response curve and the IC50 was interpolated using XLfit® statistical and curve fitting package.
An IC50 value between >2.0 μM and ≤3.0 μM is indicated by one star (*). […] IC50 value between >0.5 μM and ≤1.0 μM is indicated by four stars (****). An IC50 value ≤0.5 μM is indicated by five stars (*****).

| Structure (SMILES) | IC50 [1] | IC50 (ATXN3 pre-mRNA) | IC50 (average), total ATXN3 protein [1] | IC50, exon 4 skipping in ATXN3 pre-mRNA (ATXN3 pre-mRNA) |
| --- | --- | --- | --- | --- |
| N[C@H](Cc1sc2c(NCc3ccco3)cc(Cl)nc2c1Cl)C(=O)Nc1ccccc1F [Cpd 120, 3-(3,5-dichloro-7-{[(furan-2-yl)methyl]amino}thieno[3,2-b]pyridin-2-yl)-N-(2-fluorophenyl)-D-alaninamide] | 500 to 1000 nM | ≤ 500 nM | – | – |
| C#C[C@H](N)Cc1sc2c(NCc3ccco3)cc(Cl)nc2c1Cl [Cpd 166, 2-[(2R)-2-aminobut-3-yn-1-yl]-3,5-dichloro-N-[(furan-2-yl)methyl]thieno[3,2-b]pyridin-7-amine] | ≤ 500 nM | ≤ 500 nM | – | – |
| C[C@H](N)Cc1sc2c(NCc3ccco3)cc(Cl)nc2c1C#N [Cpd 109, 2-[(2S)-2-aminopropyl]-5-chloro-7-{[(furan-2-yl)methyl]amino}thieno[3,2-b]pyridine-3-carbonitrile] | ≤ 500 nM | ≤ 500 nM | – | – |
| Cc1c(C[C@H](C)N)sc2c(NCc3ccccc3F)cc(Cl)nc12 [Cpd 29, 2-[(2S)-2-aminopropyl]-5-chloro-N-[(2-fluorophenyl)methyl]-3-methylthieno[3,2-b]pyridin-7-amine] | ≤ 500 nM | ≤ 500 nM | – | – |
| C[C@H](N)C(F)c1sc2c(NCc3cccs3)cc(Cl)nc2c1Br (stereo partly drawn) [Cpd 158, 2-[(2S)-2-amino-1-fluoropropyl]-3-bromo-5-chloro-N-[(thiophen-2-yl)methyl]thieno[3,2-b]pyridin-7-amine] | ≤ 500 nM | ≤ 500 nM | – | – |
| Cc1c(NC[C@@H](C)N)sc2c(NCc3cccs3)cc(Cl)nc12 [Cpd 164, N^2-[(2R)-2-aminopropyl]-5-chloro-3-methyl-N^7-[(thiophen-2-yl)methyl]thieno[3,2-b]pyridine-2,7-diamine] | > 2000 nM | 2000 to 3000 nM | – | – |
| C[C@H](N)Cc1sc2c(NCc3cccs3)cc(Cl)nc2c1Cl [Cpd 52, 2-[(2S)-2-aminopropyl]-3,5-dichloro-N-[(thiophen-2-yl)methyl]thieno[3,2-b]pyridin-7-amine] | ≤ 500 nM | ≤ 500 nM | – | – |
| C[C@H](F)[C@H](N)Cc1sc2c(NCc3nccs3)cc(Cl)nc2c1Br [Cpd 125, 2-[(2R,3S)-2-amino-3-fluorobutyl]-3-bromo-5-chloro-N-[(1,3-thiazol-2-yl)methyl]thieno[3,2-b]pyridin-7-amine] | ≤ 500 nM | ≤ 500 nM | – | – |
| Clc1cc(NCc2ccco2)c2scc(Br)c2n1 [Cpd 7, 3-bromo-5-chloro-N-[(furan-2-yl)methyl]thieno[3,2-b]pyridin-7-amine] | – | 1000 to 1500 nM | inactive | – |
| N[C@@H](CCF)Cc1sc2c(NCc3cccs3)cc(Cl)nc2c1Br [Cpd 74, 2-[(2S)-2-amino-4-fluorobutyl]-3-bromo-5-chloro-N-[(thiophen-2-yl)methyl]thieno[3,2-b]pyridin-7-amine] | ≤ 500 nM | ≤ 500 nM | – | – |
| Clc1cc(NCc2ccco2)c2scc(Cl)c2n1 [Cpd 6, 3,5-dichloro-N-[(furan-2-yl)methyl]thieno[3,2-b]pyridin-7-amine] | – | – | inactive | inactive |
| Cc1c(NC[C@H](C)N)sc2c(NCc3cccs3)cc(Cl)nc12 [Cpd 163, N^2-[(2S)-2-aminopropyl]-5-chloro-3-methyl-N^7-[(thiophen-2-yl)methyl]thieno[3,2-b]pyridine-2,7-diamine] | 1000 to 1500 nM | 500 to 1000 nM | – | – |
| Cc1c(C[C@H](C)N)sc2c(NCc3ccco3)cc(Cl)nc12 [Cpd 18, 2-[(2S)-2-aminopropyl]-5-chloro-N-[(furan-2-yl)methyl]-3-methylthieno[3,2-b]pyridin-7-amine] | ≤ 500 nM | ≤ 500 nM | – | – |
| C[C@H](N)Cc1cc2nc(Cl)cc(NCc3ccco3)c2s1 [Cpd 16, 2-[(2S)-2-aminopropyl]-5-chloro-N-[(furan-2-yl)methyl]thieno[3,2-b]pyridin-7-amine] | ≤ 500 nM | ≤ 500 nM | – | – |
| Cc1c(C[C@@H](N)[C@H](C)F)sc2c(NCc3nccs3)cc(Cl)nc12 [Cpd 128, 2-[(2R,3S)-2-amino-3-fluorobutyl]-5-chloro-3-methyl-N-[(1,3-thiazol-2-yl)methyl]thieno[3,2-b]pyridin-7-amine] | ≤ 500 nM | ≤ 500 nM | – | – |

The remaining lines, values ahead:

| IC50 [1] | IC50 (ATXN3 pre-mRNA) | IC50 (average), total ATXN3 protein [1] | IC50, exon 4 skipping in ATXN3 pre-mRNA (ATXN3 pre-mRNA) | Structure (SMILES) |
| --- | --- | --- | --- | --- |
| ≤ 500 nM | ≤ 500 nM | – | – | COC[C@H](N)Cc1sc2c(NCc3ccco3)cc(Cl)nc2c1C [Cpd 45, 2-[(2R)-2-amino-3-methoxypropyl]-5-chloro-N-[(furan-2-yl)methyl]-3-methylthieno[3,2-b]pyridin-7-amine] |
| ≤ 500 nM | ≤ 500 nM | – | – | Cc1c(C[C@@H](N)CF)sc2c(NCc3ccco3)cc(Cl)nc12 [Cpd 81, 2-[(2R)-2-amino-3-fluoropropyl]-5-chloro-N-[(furan-2-yl)methyl]-3-methylthieno[3,2-b]pyridin-7-amine] |
| 1000 to 1500 nM | 1000 to 1500 nM | – | – | Cc1c([C@@H](C)[C@H](C)N)sc2c(NCc3ccco3)cc(Cl)nc12 [Cpd 151, 2-[(2S,3S)-3-aminobutan-2-yl]-5-chloro-N-[(furan-2-yl)methyl]-3-methylthieno[3,2-b]pyridin-7-amine] |
| – | – | inactive | inactive | Cc1c(CCN)sc2c(NCc3ccco3)cc(Cl)nc12 [Cpd 152, 2-(2-aminoethyl)-5-chloro-N-[(furan-2-yl)methyl]-3-methylthieno[3,2-b]pyridin-7-amine] |
| ≤ 500 nM | ≤ 500 nM | – | – | C[C@@H](O)[C@H](N)Cc1sc2c(NCc3ccco3)cc(Cl)nc2c1Br [Cpd 165, (2R,3R)-3-amino-4-(3-bromo-5-chloro-7-{[(furan-2-yl)methyl]amino}thieno[3,2-b]pyridin-2-yl)butan-2-ol] |
| ≤ 500 nM | ≤ 500 nM | – | – | Cc1c(C[C@@H](N)C(=O)O)sc2c(NCc3ccco3)cc(Cl)nc12 [Cpd 115, 3-(5-chloro-7-{[(furan-2-yl)methyl]amino}-3-methylthieno[3,2-b]pyridin-2-yl)-D-alanine] |
| ≤ 500 nM | ≤ 500 nM | – | – | N[C@@H](CO)Cc1sc2c(NCc3ccco3)cc(Cl)nc2c1Cl [Cpd 39, (2R)-2-amino-3-(3,5-dichloro-7-{[(furan-2-yl)methyl]amino}thieno[3,2-b]pyridin-2-yl)propan-1-ol] |
| ≤ 500 nM | ≤ 500 nM | – | – | C[S+]([O-])C[C@H](N)Cc1sc2c(NCc3ccco3)cc(Cl)nc2c1Cl (stereo partly drawn) [Cpd 167, [(2R)-2-amino-3-(3,5-dichloro-7-{[(furan-2-yl)methyl]amino}thieno[3,2-b]pyridin-2-yl)propyl](methyl)sulfaniumolate] |
